Results on 19 compounds are retold here after patent US20130217664A1, “NOVEL COMPOUNDS USEFUL FOR THE TREATMENT OF DEGENERATIVE AND INFLAMMATORY DISEASES” (priority 2012, published 2013).

The target of experiment [1] is T1, human JAK1 (Homo sapiens, UniProt P23458).
T1 construct: catalytic domain, amino acids 866-1154; catalog number PV4774; purchased Invitrogen PV4774
As to the kind of experiment: JAK1 inhibition assay (polyGT substrate / Ulight-JAK1 peptide). Format: biochemical. To be noted: recombinant human JAK1 catalytic domain; polyGT or Ulight-JAK1 peptide assay. An outline of the steps: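 Signal scaled between vehicle and 10 μM staurosporine. Radiometric polyGT reactions ran 45 min at 30 °C, counted after phosphoric-acid stop. Ulight peptide reactions ran 60 min at room temperature, fluorescence read after adding Eu-PT66 detection mix with EDTA.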

For experiment [2], the target named is T2, human JAK3 (Homo sapiens, UniProt P52333).
T2 construct: catalytic domain (amino acids 781-1124; catalog number PV3855); purchased Invitrogen PV3855
As to the kind of experiment: JAK3 inhibition assay. Format: biochemical. To be noted: recombinant human JAK3 catalytic domain; polyGT substrate. The procedure, abridged:
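Radiometric kinase assay: 0.5 ng JAK3 with 2.5 μg polyGT in Tris pH 7.5/MgCl2 buffer, 1 μM ATP plus 0.25 μCi 33P-γ-ATP, 1% DMSO, 45 min at 30 °C, stopped with phosphoric acid.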

The target of experiment [3] is T3, human TYK2 (Homo sapiens, UniProt P29597).
T3 construct: catalytic domain (amino acids 871-1187; catalog number 08-147); purchased Carna Biosciences 08-147
T3 sequence (P29597 871-1187): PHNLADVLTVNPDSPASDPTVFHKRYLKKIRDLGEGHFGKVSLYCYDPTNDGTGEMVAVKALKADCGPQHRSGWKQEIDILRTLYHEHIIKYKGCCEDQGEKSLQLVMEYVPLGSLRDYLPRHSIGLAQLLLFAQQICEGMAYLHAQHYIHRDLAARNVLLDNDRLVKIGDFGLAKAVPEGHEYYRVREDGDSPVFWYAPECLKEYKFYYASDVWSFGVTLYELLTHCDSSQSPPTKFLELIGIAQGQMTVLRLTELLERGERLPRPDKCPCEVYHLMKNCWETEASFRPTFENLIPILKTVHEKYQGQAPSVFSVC
As to the kind of experiment: TYK2 inhibition assay. Format: biochemical. The settings on record: recombinant human TYK2 catalytic domain, polyGT substrate. The procedure, abridged: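 Radiometric kinase reaction run 90 min at 30 °C, stopped with phosphoric acid, washed and scintillation-counted.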

In experiment [4] the test system is pSTAT1(2)-luciferase reporter in HeLa cells triggered with human OSM. As to the kind of experiment: JAK-STAT signalling assay. The class given is cell-based. The settings on record: Homo sapiens, HeLa, HeLa cells, pSTAT1(2)-luciferase reporter, human OSM 33 ng/mL; read-out: JAK-STAT IC50. As to the method: JAK-STAT Signalling Assay
HeLa cells were maintained in Dulbecco's Modified Eagle's Medium (DMEM) containing 10% heat inactivated fetal calf serum, 100 U/mL penicillin and 100 μg/mL streptomycin. HeLa cells were used at 70% confluence for transfection. 20,000 cells in 87 μL cell culture medium were transiently transfected with 40 ng pSTAT1(2)-luciferase reporter (Panomics), 8 ng of LacZ reporter as internal control reporter and 52 ng of pBSK using 0.32 μL Jet-PEI (Polyplus) as transfection reagent per well in 96-well plate format. After overnight incubation at 37° C., 5% CO2, transfection medium was removed. 81 μL of DMEM+1.5% heat inactivated fetal calf serum was added. 9 μL compound at 10× concentration was added for 60 min and then 10 μL of human OSM (Peprotech) at 33 ng/mL final concentration.
After overnight incubation at 37° C., 5% CO2 cells were lysed by adding 100 μL lysis buffer/well (PBS, 0.9 mM CaCl2, 0.5 mM MgCl2, 10% Trehalose, 0.05% Tergitol NP9, 0.3% BSA).
40 μL of cell lysate was used to read β-galactosidase activity by adding 180 μL β-Gal solution (30 μL ONPG 4 mg/mL+150 μL β-Galactosidase buffer (0.06 M Na2HPO4, 0.04 M NaH2PO4, 1 mM MgCl2)) for 20 min.
Luciferase activity was measured using 40 μL cell lysate plus 40 μL of Steadylite as described by the manufacturer (Perkin Elmer), on the Envision (Perkin Elmer).
The positive and negative controls were used to calculate z′ and ‘percent inhibition’ (PIN) values.
Percentage inhibition=((fluorescence determined in the presence of vehicle−fluorescence determined for sample with test compound present)divided by(fluorescence determined in the presence of vehicle−fluorescence determined for sample without trigger))*100.
PIN values were plotted for compounds tested in dose-response and EC50 values were derived.

T1 sequence (P23458 866-1154): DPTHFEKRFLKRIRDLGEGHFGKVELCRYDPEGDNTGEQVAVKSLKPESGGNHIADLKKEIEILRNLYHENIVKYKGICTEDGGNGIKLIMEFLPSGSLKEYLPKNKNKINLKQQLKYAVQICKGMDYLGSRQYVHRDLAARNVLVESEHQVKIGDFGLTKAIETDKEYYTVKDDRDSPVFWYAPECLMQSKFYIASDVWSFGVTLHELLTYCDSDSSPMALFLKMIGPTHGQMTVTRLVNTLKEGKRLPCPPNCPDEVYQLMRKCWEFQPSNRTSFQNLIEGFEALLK
T2 sequence (P52333 781-1124): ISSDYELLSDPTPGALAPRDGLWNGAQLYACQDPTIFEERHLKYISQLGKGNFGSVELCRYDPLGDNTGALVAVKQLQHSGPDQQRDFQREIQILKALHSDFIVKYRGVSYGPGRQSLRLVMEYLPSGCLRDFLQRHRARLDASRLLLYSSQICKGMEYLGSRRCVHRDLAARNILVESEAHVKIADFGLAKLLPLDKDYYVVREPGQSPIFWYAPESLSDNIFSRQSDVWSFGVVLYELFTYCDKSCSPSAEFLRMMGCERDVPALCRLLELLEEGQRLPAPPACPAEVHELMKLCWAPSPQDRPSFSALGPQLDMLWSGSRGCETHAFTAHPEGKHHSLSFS

For `CCc1cc(-c2cnc(N(C)C)nc2)ccc1N(C)c1cc2c(cn1)ncn2C` [Compound 129, N-(4-(2-(dimethylamino)pyrimidin-5-yl)-2-ethylphenyl)-N,1-dimethyl-1H-imidazo[4,5-c]pyridin-6-amine], the 50% inhibitory concentration (IC50) in experiment [1] was 0.01 to 100 nM; in experiment [2] it was more than 1000 nM; in experiment [3] it was 101 to 500 nM; in experiment [4], more than 1000 nM.

With `CCc1cc(-c2ccc(C)nc2)ccc1N(C)c1cc2c(cn1)ncn2C` [Compound 131, N-(2-ethyl-4-(6-methylpyridin-3-yl)phenyl)-N,1-dimethyl-1H-imidazo[4,5-c]pyridin-6-amine], the IC50 was 0.01 to 100 nM in experiment [1], more than 1000 nM in experiment [2], 101 to 500 nM in experiment [3] and 501 to 1000 nM in experiment [4].

As to `CCc1cc(-c2ccc(O)nc2)ccc1N(C)c1cc2c(cn1)ncn2C` [Compound 132, 5-(3-Ethyl-4-(methyl(1-methyl-1H-imidazo[4,5-c]pyridin-6-yl)amino)phenyl)pyridin-2-ol], the IC50 in experiment [1] fell in the range of 0.01 to 100 nM; in experiment [2] it was 101 to 500 nM; in experiment [3], 0.01 to 100 nM; in experiment [4] it was 501 to 1000 nM.

As for `CCc1cc(CNC)ccc1N(C)c1cc2c(cn1)ncn2C` [Compound 135, N-(2-ethyl-4-((methylamino)methyl)phenyl)-N,1-dimethyl-1H-imidazo[4,5-c]pyridin-6-amine], the IC50 in experiment [1] is 0.01 to 100 nM; in experiment [2], more than 1000 nM; in experiment [3] it was more than 1000 nM; in experiment [4] it was more than 1000 nM.

As to `CCc1cc(CN2CCN(S(C)(=O)=O)CC2)ccc1N(C)c1cc2c(cn1)ncn2C` [Compound 136, N-(2-Ethyl-4-((4-(methylsulfonyl)piperazin-1-yl)methyl)phenyl)-N,1-dimethyl-1H-imidazo[4,5-c]pyridin-6-amine], the 50% inhibitory concentration (IC50) in experiment [1] is 0.01 to 100 nM; in experiment [2] it was 501 to 1000 nM; in experiment [3], 0.01 to 100 nM; in experiment [4] it was 501 to 1000 nM.

`CCc1cc(-c2cnn(Cc3ccccc3)c2)ccc1N(C)c1cc2c(cn1)ncn2C` [Compound 139, N-(4-(1-benzyl-1H-pyrazol-4-yl)-2-ethylphenyl)-N,1-dimethyl-1H-imidazo[4,5-c]pyridin-6-amine]: the concentration for half-maximal inhibition (IC50) in experiment [1] lay in the range of 0.01 to 100 nM; in experiment [2], 101 to 500 nM; in experiment [3], 0.01 to 100 nM; in experiment [4], 501 to 1000 nM.

For `CCc1cc(-c2cnc(C(C)C)nc2)ccc1N(C)c1cc2c(cn1)ncn2C` [Compound 140, N-(2-ethyl-4-(2-isopropylpyrimidin-5-yl)phenyl)-N,1-dimethyl-1H-imidazo[4,5-c]pyridin-6-amine], the IC50 is 0.01 to 100 nM in experiment [1], more than 1000 nM in experiment [2], 101 to 500 nM in experiment [3] and more than 1000 nM in experiment [4].

As to `CCc1cc(CN2CCN(C)CC2)ccc1N(C)c1cc2c(cn1)ncn2C` [Compound 141, N-(2-ethyl-4-((4-methylpiperazin-1-yl)methyl)phenyl)-N,1-dimethyl-1H-imidazo[4,5-c]pyridin-6-amine], the IC50 in experiment [1] is 101 to 500 nM; in experiment [2] it was more than 1000 nM; in experiment [3], more than 1000 nM; in experiment [4], more than 1000 nM.

Consider `CCc1cc(CN2CCOCC2)ccc1N(C)c1cc2c(cn1)ncn2C` [Compound 142, N-(2-ethyl-4-(morpholinomethyl)phenyl)-N,1-dimethyl-1H-imidazo[4,5-c]pyridin-6-amine], for which the IC50 in experiment [1] is 0.01 to 100 nM; in experiment [2], more than 1000 nM; in experiment [3], 101 to 500 nM; in experiment [4] it was 501 to 1000 nM.

Turning to `CCc1cc(CN2CCS(=O)(=O)CC2)ccc1N(C)c1cc2c(cn1)ncn2C` [Compound 143, [4-(1,1-Dioxothiomorpholin-4-ylmethyl)-2-ethyl-phenyl]-methyl-(1-methyl-1H-imidazo[4,5-c]pyridin-6-yl)-amine], the IC50 in experiment [1] is 0.01 to 100 nM; in experiment [2], 501 to 1000 nM; in experiment [3], 501 to 1000 nM; in experiment [4], more than 1000 nM.

As to `CCc1cc(-c2cnccn2)ccc1N(C)c1cc2c(cn1)ncn2C` [Compound 144, N-(2-ethyl-4-(pyrazin-2-yl)phenyl)-N,1-dimethyl-1H-imidazo[4,5-c]pyridin-6-amine], the IC50 is 0.01 to 100 nM in experiment [1], 501 to 1000 nM in experiment [2], 0.01 to 100 nM in experiment [3] and more than 1000 nM in experiment [4].

In the case of `CCc1cc(-c2noc(C)n2)ccc1N(C)c1cc2c(cn1)ncn2C` [Compound 147, N-(2-ethyl-4-(5-methyl-1,2,4-oxadiazol-3-yl)phenyl)-N,1-dimethyl-1H-imidazo[4,5-c]pyridin-6-amine], the concentration for half-maximal inhibition (IC50) is 0.01 to 100 nM in experiment [1], more than 1000 nM in experiment [2], 0.01 to 100 nM in experiment [3] and 501 to 1000 nM in experiment [4].

Take `CCc1cc(-c2noc(CC#N)n2)ccc1N(C)c1cc2c(cn1)ncn2C` [Compound 148, 2-(3-(3-ethyl-4-(methyl(1-methyl-1H-imidazo[4,5-c]pyridin-6-yl)amino)phenyl)-1,2,4-oxadiazol-5-yl)acetonitrile]: the 50% inhibitory concentration (IC50) in experiment [1] lay in the range of 0.01 to 100 nM; in experiment [2], 501 to 1000 nM; in experiment [3], 0.01 to 100 nM; in experiment [4] it was 501 to 1000 nM.

`CCc1cc(CNCC#N)ccc1N(C)c1cc2c(cn1)ncn2C` [Compound 149, 2-(3-ethyl-4-(methyl(1-methyl-1H-imidazo[4,5-c]pyridin-6-yl)amino)benzylamino) acetonitrile]: the IC50 in experiment [1] is 0.01 to 100 nM; in experiment [2], 101 to 500 nM; in experiment [3], 0.01 to 100 nM; in experiment [4] it was more than 1000 nM.

With `CCc1cc(-c2cscn2)ccc1N(C)c1cc2c(cn1)ncn2C` [Compound 150, N-(2-ethyl-4-(thiazol-4-yl)phenyl)-N,1-dimethyl-1H-imidazo[4,5-c]pyridin-6-amine], the IC50 lay in the range of 0.01 to 100 nM in experiment [1], 101 to 500 nM in experiment [2], 0.01 to 100 nM in experiment [3] and 1 to 500 nM in experiment [4].

With `CCc1cc(C2=CCOCC2)ccc1N(C)c1cc2c(cn1)ncn2C` [Compound 153, N-(4-(3,6-dihydro-2H-pyran-4-yl)-2-ethylphenyl)-N,1-dimethyl-1H-imidazo[4,5-c]pyridin-6-amine], the IC50 in experiment [1] was in the range of 0.01 to 100 nM; in experiment [2], 101 to 500 nM; in experiment [3] it was 0.01 to 100 nM; in experiment [4], 1 to 500 nM.

`CCc1cc(C2=CCN(C(=O)OC(C)(C)C)CC2)ccc1N(C)c1cc2c(cn1)ncn2C` [Compound 154, tert-butyl 4-(3-ethyl-4-(methyl(1-methyl-1H-imidazo[4,5-c]pyridin-6-yl)amino)phenyl)-5,6-dihydropyridine-1(2H)-carboxylate]: the concentration for half-maximal inhibition (IC50) in experiment [1] was 0.01 to 100 nM; in experiment [2] it was more than 1000 nM; in experiment [3], 101 to 500 nM; in experiment [4] it was more than 1000 nM.

Take `CCc1cc(-c2cnccc2Cl)ccc1N(C)c1cc2c(cn1)ncn2C` [Compound 155, N-(4-(4-chloropyridin-3-yl)-2-ethylphenyl)-N,1-dimethyl-1H-imidazo[4,5-c]pyridin-6-amine]: the half-maximal inhibitory concentration (IC50) lay in the range of 0.01 to 100 nM in experiment [1], 101 to 500 nM in experiment [2], 0.01 to 100 nM in experiment [3] and 501 to 1000 nM in experiment [4].

Regarding `CCc1cc(-c2noc(CCC#N)n2)ccc1N(C)c1cc2c(cn1)ncn2C` [Compound 156, 3-(3-(3-Ethyl-4-(methyl(1-methyl-1H-imidazo[4,5-c]pyridin-6-yl)amino)phenyl)-1,2,4-oxadiazol-5-yl)propanenitrile], the IC50 was 0.01 to 100 nM in experiment [1], more than 1000 nM in experiment [2], 0.01 to 100 nM in experiment [3] and 501 to 1000 nM in experiment [4].

By IC50 is commonly meant the point on the concentration scale where inhibition reaches its midpoint.
